Like-named read-outs stand apart in the source and are kept apart here.
Experiments:
[1] = tested on: nitric oxide (NO) production by LPS-stimulated macrophages (RAW 264.7); experiment: NO production by LPS-stimulated macrophages (Griess); type: cell-based, mouse; details: for IC50: Mus musculus, read-out: NO Production, concentration necessary to halve NO production (IC50)
Method: Immunomodulatory effect of tested compounds was determined as their ability to decrease nitric oxide (NO) production by LPS-stimulated macrophages (RAW 264.7, Sigma-Aldrich). Briefly, the cells were seeded into the 96-well plate at a density of 1 × 10^6 cells/mL in DMEM medium (supplemented with 2 mM L-glutamine and 1 × antibiotic antimycotic solution). After 48 h, the cells were washed with PBS. The MEM medium enriched with LPS (1 µg/mL) was added to the wells, together with the samples in the concentration range of 6.25–100 µM at a final volume of 100 µL. Indomethacin, a non-steroidal anti-inflammatory drug, was tested as a positive control in the concentration range 6.25–100 µM. After 24 h, the medium was used for the quantification of NO and inflammatory cytokines.
After 15 min, absorbance was recorded at 540 nm.

human recombinant P-gp = biological target: T1, human recombinant P-gp (Homo sapiens, UniProt P08183); experiment: biochemical
T1 construct: purchased Promega
T1 sequence (P08183 whole entry): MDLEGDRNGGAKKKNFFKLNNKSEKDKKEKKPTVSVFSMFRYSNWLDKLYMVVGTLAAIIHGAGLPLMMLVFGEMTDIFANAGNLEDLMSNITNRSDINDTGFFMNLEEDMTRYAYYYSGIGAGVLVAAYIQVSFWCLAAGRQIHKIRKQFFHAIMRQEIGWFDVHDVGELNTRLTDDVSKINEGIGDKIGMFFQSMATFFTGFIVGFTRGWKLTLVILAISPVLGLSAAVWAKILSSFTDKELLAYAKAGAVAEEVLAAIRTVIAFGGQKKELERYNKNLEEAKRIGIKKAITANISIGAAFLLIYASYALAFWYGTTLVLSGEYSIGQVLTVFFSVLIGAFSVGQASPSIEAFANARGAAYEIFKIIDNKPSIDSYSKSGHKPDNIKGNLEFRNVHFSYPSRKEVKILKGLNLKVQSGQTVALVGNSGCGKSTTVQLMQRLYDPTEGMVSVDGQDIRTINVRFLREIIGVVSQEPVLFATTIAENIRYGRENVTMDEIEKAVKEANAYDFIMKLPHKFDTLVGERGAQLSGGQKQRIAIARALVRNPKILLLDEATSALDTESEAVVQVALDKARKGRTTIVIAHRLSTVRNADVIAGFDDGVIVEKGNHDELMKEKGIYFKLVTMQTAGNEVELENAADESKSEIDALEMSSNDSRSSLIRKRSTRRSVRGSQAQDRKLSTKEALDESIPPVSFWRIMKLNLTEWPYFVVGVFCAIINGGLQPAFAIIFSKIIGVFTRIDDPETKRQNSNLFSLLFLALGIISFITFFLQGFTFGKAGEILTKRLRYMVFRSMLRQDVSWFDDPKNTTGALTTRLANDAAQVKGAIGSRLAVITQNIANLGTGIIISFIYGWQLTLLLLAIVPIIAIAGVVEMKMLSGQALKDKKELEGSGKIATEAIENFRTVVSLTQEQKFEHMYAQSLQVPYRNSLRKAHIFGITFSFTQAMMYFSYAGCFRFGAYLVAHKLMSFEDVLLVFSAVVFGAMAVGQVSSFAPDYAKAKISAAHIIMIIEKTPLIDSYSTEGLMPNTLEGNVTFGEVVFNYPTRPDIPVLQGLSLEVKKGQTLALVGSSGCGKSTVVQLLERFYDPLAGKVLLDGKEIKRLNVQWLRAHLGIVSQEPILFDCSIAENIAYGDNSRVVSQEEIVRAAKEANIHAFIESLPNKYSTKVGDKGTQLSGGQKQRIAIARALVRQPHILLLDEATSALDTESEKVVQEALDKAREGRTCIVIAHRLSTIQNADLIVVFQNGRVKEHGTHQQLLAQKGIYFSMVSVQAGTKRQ
Method: The procedure and the dilution of the reagents were performed according to the manufacturer’s instructions. Briefly, the human recombinant P-gp-containing membrane (25 µg) was mixed in a 96-well plate with P-gp–Glo™ Assay buffer (control), verapamil (P-gp substrate, positive control, 0.2 mM), Na3VO4 (P-gp inhibitor, negative control, 0.1 mM), ATP standards (to construct the calibration curve, 0.375–3 mM) or samples (2.5 µL, in the concentration range 0.7–20 mM). After that, MgATP (5 mM) was added to total volume of 50 µL to each well to initiate the ATPase reaction. The plate was incubated for 1 h at 37 °C. Thereafter, the reaction was stopped by adding 50 µL of ATP detection reagent and incubated at room temperature for 20 min. The remaining non-metabolized ATP was detected as a luciferase-generated signal.
Using linear regression, the standard ATP curve was designed, and by subsequent interpolation of relative luminescence (RLU) of standards, the amount of ATP consumed in the samples was recalculated according to the manufacturer’s guidelines.

A2780/DOX = experiment: Sensitization of the MDR cell line to doxorubicin; type: cell-based, human
Method: A multidrug resistant ovarian sub-line resistant to doxorubicin (A2780/DOX, Sigma-Aldrich) was cultivated in DMEM medium with 10% FBS and 1 × antibiotic antimycotic solution. Every other passage, doxorubicin at the final concentration of 0.1 µM was added to the culture medium to maintain the resistance of the cell line. To perform experiments, the cells were seeded at 1 × 10^5 cell/mL into the wells of a 96-well plate and incubated for 24 h. Afterwards, the cells were washed with PBS and fresh DMEM medium with tested compounds at 10, 20 and 30 µM were added to each well, except for the control wells. Subsequently, the cells were exposed to increasing concentrations of doxorubicin (0.6–20 µM) for 72 h. After incubation, the resazurin assay was performed as described above. The IC50 of doxorubicin was calculated for both the control and the samples and the fold change was counted up. […] The fold change lower than 1 means an antagonistic effect. (1) FOLD CHANGE=IC50 value of DOX cells treated with chemotherapeutic /IC50 value of DOX cells treated with chemotherapeutic and compound

ABCB6 = ABCB6 mRNA expression (real-time PCR); type: cell-based, human; details: A2780/DOX
Method: (§1) The A2780/DOX cell line was seeded into 5 cm Petri dishes with DMEM medium at 1 × 10^5 cell/mL. […] After 48 h of treatment, the cells were washed with PBS and harvested using the standard trypsin-EDTA procedure. The harvested cells were centrifuged (3200× g; 10 min, 4 °C). The supernatant was discarded, and the pellets were washed with 1.5 mL of cooled PBS (5400× g; 10 min, 4 °C). The washing step was repeated with 1 mL of PBS and the cells were centrifuged again (10,000× g; 3 min, 4 °C). Afterwards, the pellets were resuspended in 1 mL of Trizol (Invitrogen, Carlsbad, CA, USA) and transferred into pre-cooled RNase-free microfuge tubes. The samples were stored at −80 °C.
(§2) A Quant-iT RiboGreen RNA Assay Kit (Invitrogen) was used to determine the RNA concentration using the Infinite M200 plate reader (Tecan, Männedor, Switzerland). The cDNA was prepared from 0.5 µg of total RNA using a RevertAid First Strand Synthesis cDNA Kit (MBI Fermentas, Vilnius, Lithuania). The amplification of the ubiquitin C gene fragment was used to determine the quality of cDNA.
(§3) The experiment was performed using the ViiA7 Real-Time polymerase chain reaction (PCR) System (Life Technologies, Camarillo, CA, USA) with a 384-well block. Before quantitative real-time PCR, the master mix was prepared by mixing 2 µL of 8 × diluted cDNA, 1.75 µL of RNase free water, 1 µL of 5 × HotFIREPol Probe quantitative PCR Mix Plus (Solis Biodyne, Tartu, Estonia) and 0.25 µL of specific 20 × TaqMan Gene Expression Assay (Life Technologies), giving 5 µL of final reaction volume. Cycling parameters were: initial hold at 50 °C for 2 min and denaturation at 95 °C for 10 min, followed by 45 cycles consisting of denaturation at 95 °C for 15 s and annealing/extension at 60 °C for 1 min. After each extension phase, the fluorescence values were acquired. Duplicate samples were used for measurement and samples with a standard deviation of duplicates > 1.0 cycle threshold (Ct) were re-analyzed. The real time PCR procedure was maintained according to MIQE (Minimum information for publication of quantitative real-time PCR experiments) guidelines. The software REST 2009 (Qiagen, Hilden, Germany) served to compare relative transcript levels of genes in the cell line.

ABCB9 = ABCB9 mRNA expression (real-time PCR); type: cell-based, human; details: A2780/DOX, 10 µM combined with doxorubicin at IC25, 48 h
Method: (§4) The A2780/DOX cell line was seeded into 5 cm Petri dishes with DMEM medium at 1 × 10^5 cell/mL. After 24 h, the dishes were washed with PBS and new DMEM medium supplemented with doxorubicin (at concentration equal to IC25) and samples (10 µM) were added. After 48 h of treatment, the cells were washed with PBS and harvested using the standard trypsin-EDTA procedure. The harvested cells were centrifuged (3200× g; 10 min, 4 °C). The supernatant was discarded, and the pellets were washed with 1.5 mL of cooled PBS (5400× g; 10 min, 4 °C). The washing step was repeated with 1 mL of PBS and the cells were centrifuged again (10,000× g; 3 min, 4 °C). Afterwards, the pellets were resuspended in 1 mL of Trizol (Invitrogen, Carlsbad, CA, USA) and transferred into pre-cooled RNase-free microfuge tubes. The samples were stored at −80 °C.
as §2, §3

ABCC1 (MRP1) = experiment: ABCC1 mRNA expression (real-time PCR); type: cell-based, human
Method: as §4, §2, §3

ABCD1 = ABCD1 mRNA expression (real-time PCR); type: cell-based, human; details: A2780/DOX
Method: as §4, §2, §3

ABCD2 = ABCD2 mRNA expression (real-time PCR); type: cell-based, human; details: A2780/DOX
Method: as §1, §2, §3

ABCG4 = ABCG4 mRNA expression (real-time PCR); type: cell-based, human; details: for ABCG4 Expression Difference / ABCG4 Treated vs. Untreated: A2780/DOX
Method: as §1, §2, §3

[2] = 10 µM combined with doxorubicin at IC25, 48 h
[3] = A2780/DOX, 10 µM combined with doxorubicin at IC25, 48 h
[4] = 10 µM, 48 h, without doxorubicin
[5] = RAW264.7, RAW 264.7, LPS 1 µg/mL, 24 h
[6] = A2780/DOX, 10 µM, 48 h, without doxorubicin

SMILES | IC50 ([1]; RAW264.7, 24 h) [µM] | IC50 (human recombinant P-gp) [µM] | Doxorubicin-sensitization rate (ratio of IC50 of doxorubicin and doxorubicin + tested compound) (A2780/DOX; compound 10 µM) | ABCB6 Expression Difference (ABCB6; [2]) | ABCB9 Expression Difference (ABCB9) | ABCC1 Expression Difference (ABCC1 (MRP1); [3]) | ABCD1 Expression Difference (ABCD1; [2]) | ABCD2 Expression Difference (ABCD2; [2]) | ABCD2 Treated vs. Untreated (ABCD2; [2]) | ABCD2 Expression Difference (ABCD2; [4]) | ABCD2 Treated vs. Untreated (ABCD2; [4]) | downregulation of ABCG4 expression (ABCG4; [4]) [%] | ABCG4 Expression Difference (ABCG4; [2]) | ABCG4 Expression Difference (ABCG4; [4]) | ABCG4 Treated vs. Untreated (ABCG4; [4]) | IC50 [1, 5] [µM] | Doxorubicin-sensitization rate (ratio of IC50 of doxorubicin and doxorubicin + tested compound) (A2780/DOX; compound 20 µM) | Doxorubicin-sensitization rate (ratio of IC50 of doxorubicin and doxorubicin + tested compound) (A2780/DOX; compound 30 µM) | Doxorubicin-sensitization rate (ratio of IC50 of doxorubicin and doxorubicin + tested compound) (A2780/DOX; compound 50 µM) | ABCD1 Expression Difference (ABCD1; [4]) | also measured
COc1cc([C@@H]2Oc3cc(-c4oc5cc(O)cc(O)c5c(=O)c4O)ccc3O[C@H]2CO)ccc1O [Dehydrosilybin B, 2,3-dehydrosilybin B] | 31.3 ± 2.4 | 40.7 ± 3.8 | (2.0 ± 0.1) × | 1.343 | 1.218 | 1.213 | 1.784 | 0.733 | DOWN | 0.860 | DOWN | 26 | 2.860 | 0.736 | DOWN | – | – | – | – | – | immunomodulation effect lower compared to its diastereomeric mixture ([1]; NO production, vs dehydrosilybin AB): approximately 40%
COc1cc([C@H]2Oc3cc([C@H]4Oc5cc(O)cc(O)c5C(=O)[C@@H]4O)ccc3O[C@@H]2CO)ccc1O [Silybin A, silybin A] | – | 43.1 ± 6.4 | (1.3 ± 0.1) × | 1.665 | 1.586 | 1.711 | – | 0.426 | DOWN | 1.063 | – | – | 4.751 | 1.185 | – | 26.7 ± 1.6 | (1.6 ± 0.2) × | (1.9 ± 0.1) × | (3.6 ± 0.3) × | 1.187 | –
COc1cc(C2Oc3cc([C@H]4Oc5cc(O)cc(O)c5C(=O)[C@@H]4O)ccc3OC2CO)ccc1O (stereo partly shown) [Silybin AB, silybin] | – | 32.6 ± 3.6 | (1.4 ± 0.1) × | 1.527 | 1.638 | 1.640 | 2.868 | 0.494 | DOWN | 1.566 | – | – | 5.289 | 1.846 | – | 23.6 ± 1.2 | (1.6 ± 0.1) × | (1.7 ± 0.1) × | (7.7 ± 0.4) × | – | Doxorubicin-sensitization rate (ratio of IC50 of doxorubicin and doxorubicin + tested compound) (A2780/DOX; compound 50 µM, listed as silybin AB): ~10 ×; ABCB6 Expression Difference (ABCB6; [4]): 1.838; ABCC1 Expression Difference (ABCC1 (MRP1); [6]): 2.521
COc1cc(C2Oc3cc(-c4oc5cc(O)cc(O)c5c(=O)c4O)ccc3OC2CO)ccc1O (stereo not shown) [Dehydrosilybin AB, 2,3-dehydrosilybin] | 19.1 ± 0.2 | 21.1 ± 0.6 | (2.4 ± 0.2) × | 1.262 | 1.149 | 1.301 | 1.412 | 0.712 | DOWN | 1.199 | – | – | 2.008 | 1.162 | – | – | – | – | – | – | –
COc1cc([C@@H]2Oc3cc([C@H]4Oc5cc(O)cc(O)c5C(=O)[C@@H]4O)ccc3O[C@H]2CO)ccc1O [Silybin B, silybin B] | – | 51.9 ± 2.1 | (1.4 ± 0.1) × | – | 1.241 | – | – | 0.448 | DOWN | 0.322 | DOWN | – | 4.110 | 0.366 | DOWN | 26 ± 3 | (1.5 ± 0.2) × | (1.8 ± 0.1) × | (3.3 ± 0.4) × | 0.348 | ABCB6 Expression Difference (ABCB6; [4]): 0.396; ABCB6 Treated vs. Untreated (ABCB6; [4]): DOWN; downregulation of ABCC1 (MRP1) expression (ABCC1 (MRP1); [4]): 59%; ABCC1 Expression Difference (ABCC1 (MRP1); [6]): 0.413; ABCC1 Treated vs. Untreated (ABCC1 (MRP1); [6]): DOWN; ABCD1 Treated vs. Untreated (ABCD1; [4]): DOWN
COc1cc([C@H]2Oc3cc(-c4oc5cc(O)cc(O)c5c(=O)c4O)ccc3O[C@@H]2CO)ccc1O [Dehydrosilybin A, 2,3-dehydrosilybin A] | 23.2 ± 1.4 | 60.7 ± 10 | (2.1 ± 0.3) × | 1.149 | 1.109 | 0.907 | 1.435 | 0.698 | DOWN | 1.205 | – | 5 | 1.992 | 0.950 | DOWN | – | (2.5 ± 0.2) × | (9.5 ± 0.7) × | – | 1.063 | Doxorubicin-sensitization rate (ratio of IC50 of doxorubicin and doxorubicin + tested compound) (A2780/DOX; compound 30 µM, listed as dehydrosilybin A): ~10 ×

Source: PMC7278776, “Multidrug Resistance Modulation Activity of Silybin Derivatives and Their Anti-Inflammatory Potential” (Antioxidants, 2020)
